The experiment deals with human μ-opioid receptor (Homo sapiens, UniProt P35372). Format: cell-based. To be noted: read-out: EC50, μM (PAM mode).
Chain of human μ-opioid receptor (P35372 whole entry): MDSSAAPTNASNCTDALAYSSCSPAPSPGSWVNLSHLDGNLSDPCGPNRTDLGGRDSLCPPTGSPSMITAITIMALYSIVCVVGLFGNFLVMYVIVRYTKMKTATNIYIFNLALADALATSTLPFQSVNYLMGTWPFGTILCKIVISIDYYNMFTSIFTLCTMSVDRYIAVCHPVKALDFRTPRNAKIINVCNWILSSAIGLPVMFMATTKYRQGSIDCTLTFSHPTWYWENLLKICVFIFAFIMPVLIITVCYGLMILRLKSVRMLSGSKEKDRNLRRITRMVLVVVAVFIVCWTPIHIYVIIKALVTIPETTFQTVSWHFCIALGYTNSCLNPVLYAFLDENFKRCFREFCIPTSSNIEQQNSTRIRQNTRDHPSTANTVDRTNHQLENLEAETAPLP

On to `COc1ccc(C2SCCN2S(=O)(=O)c2ccc(Cl)cc2)cc1Br` (stereo not shown) [BMS-986122], for which the EC50 (commonly the midpoint of the concentration-response curve) stood at 16.2 µM.

The values are drawn from paper PMC4703110 (Journal of chemical information and modeling, 2015).
